Data: patent publication EP4790066A1, “GLP-1R/GIPR/GCGR TRIPLE AGONIST ANALOGUE AND USE THEREOF” (Shenzhen Bay Laboratory, priority 2023, dated 2025)
*1 amine or outer side, *2 acyl side, *3 side chain or, on linkers, in order; H or OH if unused. Where a SMILES comes first, the peptide text is derived from it. Bridges are numbered along the chain shown (N, C = ends). [ ]: non-standard residue; d: D form. X1 = O=C(O)CCCCCCCCCCCCCCCCCCC(=O)N[C@@H](CCCCNC(=O)COCCOCCNC(=O)COCCOCCNC(=O)CCC(=O)N(CCNC(=O)C[*:1])CCNC(=O)C[*:2])C(=O)O; αMeL = CC(C)C[C@](C)(N)C(=O)O; Dab = NCC[C@H](N)C(=O)O; Aib = CC(C)(N)C(=O)O

Legend:
Type in all cases: cell-based
[1] = target: T1, GLP-1R (Homo sapiens, UniProt P43220); test: CreLuc method (CRE-luciferase reporter), HEK293/pGM-CREB-L-Luc/GLP-1R pool; conditions: 6 h incubation, read-out: EC50 (pM) for each receptor GLP-1R
T1 construct: expressed in transfected cells
Method: (§1) 1. Insulinotropic analogues can bind to the target receptor on the cell membrane, activate the cAMP response element (CRE), and initiate the expression of downstream luciferase. The expression level is positively correlated with the biological activity of the analogue being tested. After activation, luciferase substrate is added for chemiluminescence detection, and the luminescence intensity is determined to characterize the biological activity of the test compounds. Therefore, the target peptide derivatives (or polypeptide derivatives, i.e., TG1-TG94) prepared in Example 1 and Example 2 can be tested by the CreLuc method. The specific steps are as follows: The stably transfected cell lines HEK293/pGM-CREB-L-Luc/GLP-1R pool, HEK293/pGM-CREB-L-Luc/GIPR pool, and 293HEK/pGM-CREB-L-Luc/GCGR pool were constructed. […] The corresponding test cells were digested (1 min), dispersed by pipetting, and centrifuged (1000 rpm, 5 min). The culture medium was discarded, and the cells were resuspended in freestyle medium, centrifuged again, collected, and counted. The cells were then diluted to a cell density of 5 x 10^5 cells/mL and then added to the detection wells of a 384-well plate (40 µL/20,000 cells/well). Echo was used to add the corresponding analyte dilution series. The cell plate was incubated at 37°C and 5% CO2 for 6 h, then ONE-GLO (20 µL/well) was added for detection. It was kept in the dark for 3 min, then a chemiluminescent microplate reader was used for determination. The plate was read within 30 min, and the determination results were recorded. […] Table 3: EC50 values for target peptide derivatives

[2] = target: T2, GIPR (Homo sapiens, UniProt P48546); test: CreLuc method (CRE-luciferase reporter), HEK293/pGM-CREB-L-Luc/GIPR pool; conditions: 6 h incubation, read-out: EC50 (pM) for each receptor GIPR
T2 construct: expressed in transfected cells
T2 sequence (P48546 22-466): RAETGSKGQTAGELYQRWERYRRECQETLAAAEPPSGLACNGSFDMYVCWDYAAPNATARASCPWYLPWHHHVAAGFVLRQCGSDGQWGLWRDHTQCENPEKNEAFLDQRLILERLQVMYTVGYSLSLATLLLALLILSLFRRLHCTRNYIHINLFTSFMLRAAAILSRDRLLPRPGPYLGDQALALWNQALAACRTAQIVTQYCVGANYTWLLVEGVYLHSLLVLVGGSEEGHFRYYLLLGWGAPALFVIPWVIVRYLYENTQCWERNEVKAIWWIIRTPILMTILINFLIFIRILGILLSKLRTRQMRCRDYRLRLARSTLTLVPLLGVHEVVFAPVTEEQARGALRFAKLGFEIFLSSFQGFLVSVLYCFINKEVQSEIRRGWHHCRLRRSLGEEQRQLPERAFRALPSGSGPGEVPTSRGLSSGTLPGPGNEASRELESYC
Method: as §1

[3] = target: T3, GCGR (Homo sapiens, UniProt P47871); test: CreLuc method (CRE-luciferase reporter), 293HEK/pGM-CREB-L-Luc/GCGR pool; conditions: 6 h incubation, read-out: EC50 (pM) for each receptor GCGR
T3 construct: expressed in transfected cells
Method: as §1

T3 sequence (P47871 26-477, species assumed): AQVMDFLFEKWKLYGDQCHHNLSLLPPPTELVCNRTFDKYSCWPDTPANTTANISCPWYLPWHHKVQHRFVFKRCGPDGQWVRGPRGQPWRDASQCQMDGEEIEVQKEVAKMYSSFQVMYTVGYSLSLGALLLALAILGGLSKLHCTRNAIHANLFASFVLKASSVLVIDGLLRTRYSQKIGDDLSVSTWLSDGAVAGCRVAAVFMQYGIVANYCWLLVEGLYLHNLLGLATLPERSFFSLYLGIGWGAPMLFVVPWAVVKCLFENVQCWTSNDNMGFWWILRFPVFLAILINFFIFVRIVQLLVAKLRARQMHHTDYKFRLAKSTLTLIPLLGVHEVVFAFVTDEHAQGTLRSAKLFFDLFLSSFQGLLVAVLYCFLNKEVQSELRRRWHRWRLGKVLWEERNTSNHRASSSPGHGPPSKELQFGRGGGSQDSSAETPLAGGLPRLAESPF
T1 sequence (P43220 24-463, species assumed): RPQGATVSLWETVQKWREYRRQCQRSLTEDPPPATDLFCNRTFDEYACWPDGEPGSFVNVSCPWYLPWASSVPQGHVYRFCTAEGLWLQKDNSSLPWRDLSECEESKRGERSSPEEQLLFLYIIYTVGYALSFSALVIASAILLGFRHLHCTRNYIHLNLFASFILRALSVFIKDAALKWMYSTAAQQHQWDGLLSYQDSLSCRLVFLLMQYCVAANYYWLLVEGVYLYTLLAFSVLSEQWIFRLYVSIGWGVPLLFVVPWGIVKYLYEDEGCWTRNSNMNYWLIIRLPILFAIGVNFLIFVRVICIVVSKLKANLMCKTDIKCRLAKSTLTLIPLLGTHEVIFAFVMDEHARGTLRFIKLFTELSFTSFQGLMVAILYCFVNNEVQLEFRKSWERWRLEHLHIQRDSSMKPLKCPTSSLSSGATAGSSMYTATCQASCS

| Structure (SMILES) | EC50 [1] | EC50 [2] | EC50 [3] |
| --- | --- | --- | --- |
| CC[C@H](C)[C@@H]1NC(=O)[C@H](Cc2ccccc2)NC(=O)[C@@H](NC(=O)[C@H](CCC(N)=O)NC(=O)[C@H](CCC(N)=O)NC(=O)[C@H](C)NC(=O)[C@H](CCCCNC(C)=O)NC(=O)[C@H](CCCCN)NC(=O)[C@H](CC(=O)O)NC(=O)[C@H](CC(C)C)NC(=O)[C@](C)(CC(C)C)NC(=O)[C@@H](NC(=O)[C@H](CO)NC(=O)[C@H](Cc2ccc(O)cc2)NC(=O)[C@H](CC(=O)O)NC(=O)[C@H](CO)NC(=O)[C@@H](NC(=O)[C@H](Cc2ccccc2)NC(=O)[C@@H](NC(=O)CNC(=O)[C@H](CCC(N)=O)NC(=O)C(C)(C)NC(=O)[C@@H](N)Cc2ccc(O)cc2)[C@@H](C)O)[C@@H](C)O)[C@@H](C)CC)CSCC(=O)NCCN(C(=O)CCC(=O)NCCOCCOCC(=O)NCCOCCOCC(=O)NCCCC[C@H](NC(=O)CCCCCCCCCCCCCCCCCCC(=O)O)C(=O)O)CCNC(=O)CSC[C@@H](C(=O)NCC(=O)NCC(=O)N2CCC[C@H]2C(=O)N[C@@H](CO)C(=O)N[C@@H](CO)C(=O)NCC(=O)N[C@@H](C)C(=O)N2CCC[C@H]2C(=O)N2CCC[C@H]2C(=O)N2CCC[C@H]2C(=O)N[C@@H](CO)C(N)=O)NC(=O)[C@H](CC(C)C)NC(=O)[C@H](CC(C)C)NC(=O)[C@H](Cc2ccc(O)cc2)NC(=O)[C@H](CCC(=O)O)NC1=O [TG33] (H-Y[Aib]QGTFTSDYSI[αMeL]LDKK(Ac)AQQCFIEYLLCGGPSSGAPPPS-NH2; linker 21-28 via X1) | 23.7 pM | 7.6 pM | 96.8 pM |
| CC[C@H](C)[C@@H]1NC(=O)[C@H](Cc2ccccc2)NC(=O)[C@@H](NC(=O)C(C)(C)NC(=O)[C@H](CCC(N)=O)NC(=O)[C@H](C)NC(=O)[C@H](CCCNC(=N)N)NC(=O)[C@H](CCCCN)NC(=O)[C@H](CC(=O)O)NC(=O)[C@H](CC(C)C)NC(=O)[C@](C)(CC(C)C)NC(=O)[C@@H](NC(=O)[C@H](CO)NC(=O)[C@H](Cc2ccc(O)cc2)NC(=O)[C@H](CC(=O)O)NC(=O)[C@H](CO)NC(=O)[C@@H](NC(=O)[C@H](Cc2ccccc2)NC(=O)[C@@H](NC(=O)CNC(=O)[C@H](CCC(N)=O)NC(=O)C(C)(C)NC(=O)[C@@H](N)Cc2ccc(O)cc2)[C@@H](C)O)[C@@H](C)O)[C@@H](C)CC)CSCC(=O)NCCN(C(=O)CCC(=O)NCCOCCOCC(=O)NCCOCCOCC(=O)NCCCC[C@H](NC(=O)CCCCCCCCCCCCCCCCCCC(=O)O)C(=O)O)CCNC(=O)CSC[C@@H](C(=O)NCC(=O)NCC(=O)N2CCC[C@H]2C(=O)N[C@@H](CO)C(=O)N[C@@H](CO)C(=O)NCC(=O)N[C@@H](C)C(=O)N2CCC[C@H]2C(=O)N2CCC[C@H]2C(=O)N2CCC[C@H]2C(=O)N[C@@H](CO)C(N)=O)NC(=O)[C@H](CC(C)C)NC(=O)[C@H](CC(C)C)NC(=O)[C@H](Cc2ccc(O)cc2)NC(=O)[C@H](CCC(=O)O)NC1=O [TG35] | 40.1 pM | 15.5 pM | 273 pM |
| CC[C@H](C)[C@@H]1NC(=O)[C@H](Cc2ccccc2)NC(=O)[C@@H](NC(=O)C(C)(C)NC(=O)[C@H](CCC(N)=O)NC(=O)[C@H](C)NC(=O)[C@H](CCCCNC(C)=O)NC(=O)[C@H](CCCCN)NC(=O)[C@H](CCC(=O)O)NC(=O)[C@H](CC(C)C)NC(=O)[C@](C)(CC(C)C)NC(=O)[C@@H](NC(=O)[C@H](CO)NC(=O)[C@H](Cc2ccc(O)cc2)NC(=O)[C@H](CC(=O)O)NC(=O)[C@H](CO)NC(=O)[C@@H](NC(=O)[C@H](Cc2ccccc2)NC(=O)[C@@H](NC(=O)CNC(=O)[C@H](CCC(N)=O)NC(=O)C(C)(C)NC(=O)[C@@H](N)Cc2ccc(O)cc2)[C@@H](C)O)[C@@H](C)O)[C@@H](C)CC)CSCC(=O)NCCN(C(=O)CCC(=O)NCCOCCOCC(=O)NCCOCCOCC(=O)NCCCC[C@H](NC(=O)CCCCCCCCCCCCCCCCCCC(=O)O)C(=O)O)CCNC(=O)CSC[C@@H](C(=O)NCC(=O)NCC(=O)N2CCC[C@H]2C(=O)N[C@@H](CO)C(=O)N[C@@H](CO)C(=O)NCC(=O)N[C@@H](C)C(=O)N2CCC[C@H]2C(=O)N2CCC[C@H]2C(=O)N2CCC[C@H]2C(=O)N[C@@H](CO)C(N)=O)NC(=O)[C@H](CC(C)C)NC(=O)[C@H](CC(C)C)NC(=O)[C@H](Cc2ccc(O)cc2)NC(=O)[C@H](CCC(=O)O)NC1=O [TG36] | 34.1 pM | 10.8 pM | 813 pM |
| CC[C@H](C)[C@@H]1NC(=O)[C@H](Cc2ccccc2)NC(=O)[C@@H](NC(=O)C(C)(C)NC(=O)[C@H](CCC(N)=O)NC(=O)[C@H](C)NC(=O)[C@H](CCCCNC(C)=O)NC(=O)[C@H](CCCCN)NC(=O)[C@H](CC(=O)O)NC(=O)[C@H](CC(C)C)NC(=O)[C@](C)(CC(C)C)NC(=O)[C@@H](NC(=O)[C@H](CO)NC(=O)[C@H](Cc2ccncc2)NC(=O)[C@H](CC(=O)O)NC(=O)[C@H](CO)NC(=O)[C@@H](NC(=O)[C@H](Cc2ccccc2)NC(=O)[C@@H](NC(=O)CNC(=O)[C@H](CCC(N)=O)NC(=O)C(C)(C)NC(=O)[C@@H](N)Cc2ccc(O)cc2)[C@@H](C)O)[C@@H](C)O)[C@@H](C)CC)CSCC(=O)NCCN(C(=O)CCC(=O)NCCOCCOCC(=O)NCCOCCOCC(=O)NCCCC[C@H](NC(=O)CCCCCCCCCCCCCCCCCCC(=O)O)C(=O)O)CCNC(=O)CSC[C@@H](C(=O)NCC(=O)NCC(=O)N2CCC[C@H]2C(=O)N[C@@H](CO)C(=O)N[C@@H](CO)C(=O)NCC(=O)N[C@@H](C)C(=O)N2CCC[C@H]2C(=O)N2CCC[C@H]2C(=O)N2CCC[C@H]2C(=O)N[C@@H](CO)C(N)=O)NC(=O)[C@H](CC(C)C)NC(=O)[C@H](CC(C)C)NC(=O)[C@H](Cc2ccc(O)cc2)NC(=O)[C@H](CCC(=O)O)NC1=O [TG38] | 70.2 pM | 14.5 pM | 232 pM |
| CC[C@H](C)[C@@H]1NC(=O)[C@H](Cc2ccccc2)NC(=O)[C@@H](NC(=O)C(C)(C)NC(=O)[C@H](CCC(N)=O)NC(=O)[C@H](C)NC(=O)[C@H](CCCCNC(C)=O)NC(=O)[C@H](CCCCN)NC(=O)[C@H](CC(=O)O)NC(=O)[C@H](CC(C)C)NC(=O)[C@](C)(CC(C)C)NC(=O)[C@@H](NC(=O)[C@H](CO)NC(=O)[C@H](Cc2ccc(O)cc2)NC(=O)[C@H](CC(=O)O)NC(=O)[C@H](CO)NC(=O)[C@@H](NC(=O)[C@H](Cc2ccccc2)NC(=O)[C@@H](NC(=O)CNC(=O)[C@H](CCNC(C)=O)NC(=O)C(C)(C)NC(=O)[C@@H](N)Cc2ccc(O)cc2)[C@@H](C)O)[C@@H](C)O)[C@@H](C)CC)CSCC(=O)NCCN(C(=O)CCC(=O)NCCOCCOCC(=O)NCCOCCOCC(=O)NCCCC[C@H](NC(=O)CCCCCCCCCCCCCCCCCCC(=O)O)C(=O)O)CCNC(=O)CSC[C@@H](C(=O)NCC(=O)NCC(=O)N2CCC[C@H]2C(=O)N[C@@H](CO)C(=O)N[C@@H](CO)C(=O)NCC(=O)N[C@@H](C)C(=O)N2CCC[C@H]2C(=O)N2CCC[C@H]2C(=O)N2CCC[C@H]2C(=O)N[C@@H](CO)C(N)=O)NC(=O)[C@H](CC(C)C)NC(=O)[C@H](CC(C)C)NC(=O)[C@H](Cc2ccc(O)cc2)NC(=O)[C@H](CCC(=O)O)NC1=O [TG41] (H-Y[Aib][Dab](Ac)GTFTSDYSI[αMeL]LDKK(Ac)AQ[Aib]CFIEYLLCGGPSSGAPPPS-NH2; linker 21-28 via X1) | 282 pM | 19.6 pM | 76.3 pM |
| CC[C@H](C)[C@@H]1NC(=O)[C@H](Cc2ccccc2)NC(=O)[C@@H](NC(=O)C(C)(C)NC(=O)[C@H](CCC(N)=O)NC(=O)[C@H](C)NC(=O)[C@H](CCCCNC(C)=O)NC(=O)[C@H](CCCCN)NC(=O)[C@H](CC(=O)O)NC(=O)[C@H](CC(C)C)NC(=O)[C@](C)(CC(C)C)NC(=O)[C@@H](NC(=O)[C@H](CO)NC(=O)[C@H](Cc2ccc(O)cc2)NC(=O)[C@H](CC(=O)O)NC(=O)[C@H](CO)NC(=O)[C@@H](NC(=O)[C@H](Cc2ccccc2)NC(=O)[C@@H](NC(=O)CNC(=O)[C@H](Cc2c[nH]cn2)NC(=O)C(C)(C)NC(=O)[C@@H](N)Cc2ccc(O)cc2)[C@@H](C)O)[C@@H](C)O)[C@@H](C)CC)CSCC(=O)NCCN(C(=O)CCC(=O)NCCOCCOCC(=O)NCCOCCOCC(=O)NCCCC[C@H](NC(=O)CCCCCCCCCCCCCCCCCCC(=O)O)C(=O)O)CCNC(=O)CSC[C@@H](C(=O)NCC(=O)NCC(=O)N2CCC[C@H]2C(=O)N[C@@H](CO)C(=O)N[C@@H](CO)C(=O)NCC(=O)N[C@@H](C)C(=O)N2CCC[C@H]2C(=O)N2CCC[C@H]2C(=O)N2CCC[C@H]2C(=O)N[C@@H](CO)C(N)=O)NC(=O)[C@H](CC(C)C)NC(=O)[C@H](CC(C)C)NC(=O)[C@H](Cc2ccc(O)cc2)NC(=O)[C@H](CCC(=O)O)NC1=O [TG42] | 477 pM | 21.3 pM | 99.4 pM |
